In paper PMC9322451 (Clinical Pharmacology in Drug Development, 2022):
Like-named read-outs stand apart in the source and are kept apart here.

What was measured:
[1] = Phase 1 part A: PK after single and multiple once-daily oral doses; type: in vivo, human; details: for half-life / Tmax / AUC / AUC(0-inf) / AUC(0-t) / Cmax: human, plasma, po; for half-life / AUC / AUC(0-inf) / AUC(0-t) / Cmax: mean (CV%); for half-life: read-out: t1/2 (converted); for Tmax: median (range), read-out: Tmax
Method: The study was conducted sequentially in 2 parts. […] Eligible participants were admitted to the clinical unit for single‐dose evaluation from days −2 to 2 and from days 29 to 31 for steady‐state PK and safety evaluation. Participants self‐administered daily doses after an overnight fast of at least 10 hours on days 4 to 30, with outpatient visits on days 3, 4, 7, 14, 21, 32, 33, and 61 (Figure S1).
For part A, blood samples for PK assessments were collected following administration on days 1 and 30 at 0 (predose), 0.5, 0.75, 1, 1.5, 2, 3, 4, 8, 12, 24, 48, and 72 hours after dosing. In addition, predose PK samples were collected on days 4, 7, 14, and 21. PK parameters following single and multiple once‐daily dosing were evaluated using noncompartmental analysis, including the AUC over a dosing interval (AUCτ), AUC from time 0 to the last time with quantifiable concentration (AUClast), AUC from time 0 to infinite time (AUC∞), maximum plasma concentration (Cmax), minimum plasma concentration, time to maximum plasma concentration (tmax), terminal elimination half‐life (t1/2), apparent total drug clearance following oral administration (CL/F), and predose concentration.
All statistical analyses were performed using SAS version 9.3 or higher (SAS Institute Inc., Cary, North Carolina). Analysis of PK data was performed using WinNonlin Professional Software version 8.0 or higher (Certara, LP, Princeton, New Jersey). […] Categorical data were summarized by race and treatment group in terms of number of participants with data at relevant time points, frequency counts, and percentages. PK concentrations below the limit of quantification (BLQ) at time 0 on days 1 and 30 were considered 0. Postdose BLQ data were considered missing for PK parameter calculation. For mean concentrations and graphic presentation, all BLQ data were imputed as 0.

CYP3A4/5 = system: CYP3A4/5; design: method as in unpublished data; details: ref unpublished data, read-out: half maximal inhibitory concentration; cited from earlier work
CYP1A2 = system: CYP1A2; design: method as in unpublished data; details: ref unpublished data; cited from earlier work
CYP2A6 = system: CYP2A6; design: method as in unpublished data; details: ref unpublished data; cited from earlier work
[2] = system: breast cancer resistance protein; design: method as in unpublished data; details: ref unpublished data; cited from earlier work
[3] = 10 mg, Day 30, 10 mg once daily, Japanese
[4] = 10 mg, Day 30, 10 mg once daily, White
[5] = 25 mg, Day 30, 25 mg once daily, Japanese
[6] = 25 mg, Day 30, 25 mg once daily, White
[7] = 40 mg, Day 30, 40 mg once daily, Japanese
[8] = 40 mg, Day 30, 40 mg once daily, White

Cn1c(=O)oc2ccc(-c3ccc(C[C@@H](C#N)NC(=O)[C@@H]4CNCCCO4)cc3)cc21 [Brensocatib]
half-life [1, 3]: 22.5 h
Tmax [1, 3]: 1.26 h
AUC [1, 4]: 1180 ng·h/mL
AUC(0-inf) [1, 4]: 2540 ng·h/mL
AUC(0-t) [1, 4]: 2100 ng·h/mL
Cmax [1, 4]: 89.5 ng/mL
half-life [1, 4]: 28.1 h
Tmax [1, 4]: 1.02 h
AUC ([1]; 25 mg, Day 1, 25 mg, Japanese): 2010 ng·h/mL
AUC(0-inf) ([1]; 25 mg, Day 1, 25 mg, Japanese): 3390 ng·h/mL
AUC(0-t) ([1]; 25 mg, Day 1, 25 mg, Japanese): 3040 ng·h/mL
Cmax ([1]; 25 mg, Day 1, 25 mg, Japanese): 209 ng/mL
half-life ([1]; 25 mg, Day 1, 25 mg, Japanese): 21.7 h
Tmax ([1]; 25 mg, Day 1, 25 mg, Japanese): 1.5 h
AUC ([1]; 25 mg, Day 1, 25 mg, White): 1720 ng·h/mL
AUC(0-inf) ([1]; 25 mg, Day 1, 25 mg, White): 3200 ng·h/mL
AUC(0-t) ([1]; 25 mg, Day 1, 25 mg, White): 2810 ng·h/mL
Cmax ([1]; 25 mg, Day 1, 25 mg, White): 161 ng/mL
half-life ([1]; 25 mg, Day 1, 25 mg, White): 24.5 h
Tmax ([1]; 25 mg, Day 1, 25 mg, White): 1.35 h
AUC [1, 5]: 4170 ng·h/mL
AUC(0-inf) [1, 5]: 7890 ng·h/mL
AUC(0-t) [1, 5]: 6890 ng·h/mL
Cmax [1, 5]: 301 ng/mL
half-life [1, 5]: 23.3 h
Tmax [1, 5]: 1.75 h
AUC [1, 6]: 3870 ng·h/mL
AUC(0-inf) [1, 6]: 8160 ng·h/mL
AUC(0-t) [1, 6]: 6720 ng·h/mL
Cmax [1, 6]: 265 ng/mL
half-life [1, 6]: 28.6 h
Tmax [1, 6]: 1.02 h
AUC ([1]; 40 mg, Day 1, 40 mg, Japanese): 2660 ng·h/mL
AUC(0-inf) ([1]; 40 mg, Day 1, 40 mg, Japanese): 4580 ng·h/mL
AUC(0-t) ([1]; 40 mg, Day 1, 40 mg, Japanese): 4040 ng·h/mL
Cmax ([1]; 40 mg, Day 1, 40 mg, Japanese): 245 ng/mL
half-life ([1]; 40 mg, Day 1, 40 mg, Japanese): 23.2 h
Tmax ([1]; 40 mg, Day 1, 40 mg, Japanese): 1.5 h
AUC ([1]; 40 mg, Day 1, 40 mg, White): 3420 ng·h/mL
AUC(0-inf) ([1]; 40 mg, Day 1, 40 mg, White): 5930 ng·h/mL
AUC(0-t) ([1]; 40 mg, Day 1, 40 mg, White): 5300 ng·h/mL
Cmax ([1]; 40 mg, Day 1, 40 mg, White): 328 ng/mL
half-life ([1]; 40 mg, Day 1, 40 mg, White): 22.1 h
Tmax ([1]; 40 mg, Day 1, 40 mg, White): 1.27 h
AUC [1, 7]: 4010 ng·h/mL
AUC(0-inf) [1, 7]: 7110 ng·h/mL
AUC(0-t) [1, 7]: 6400 ng·h/mL
Cmax [1, 7]: 334 ng/mL
half-life [1, 7]: 21.9 h
Tmax [1, 7]: 1.03 h
AUC [1, 8]: 6470 ng·h/mL
AUC(0-inf) [1, 8]: 12200 ng·h/mL
AUC(0-t) [1, 8]: 10600 ng·h/mL
Cmax [1, 8]: 467 ng/mL
half-life [1, 8]: 23.6 h
Tmax [1, 8]: 1.49 h
accumulation in maximum plasma concentration and AUC at steady state ([1]; once-daily dosing): ≈ 2 fold
Dose‐normalized Cmax lower in Japanese than in White participants ([1]; pooled dose groups): 19.1%
dose‐normalized AUCs lower in Japanese than in White participants ([1]; pooled dose groups): ≈ 25.6%
IC50 (CYP3A4/5): > 30 µM
CYP inhibition (CYP1A2): no effect
CYP inhibition (CYP2A6): no effect
substrate status [2]: substrate
